According to patent publication US20230165979A1, “COPPER-CONTAINING THERAGNOSTIC COMPOSITIONS AND METHODS OF USE” (Cornell University, priority 2020, published 2023):
Each block holds one molecule with its values, some of them ahead of it.

Tests used:
[1] = target: T1, PSMA on LNCaP cells (Homo sapiens, UniProt Q04609); test: Multi-concentration competitive binding assay against 99mTc-MIP-1427
T1 construct: host or cells: LNCaP
Procedure: The PSMA-expressing human prostate cancer cell line, LNCaP, was obtained from the American Type Culture Collection. Cell culture supplies were obtained from Invitrogen (USA) unless otherwise noted. LNCaP cells were maintained in RPMI-1640 medium supplemented with 10% fetal bovine serum (Hyclone), 4 mM L-glutamine, 1 mM sodium pyruvate, 10 mM N-2-hydroxyethylpiperazine-N-2-ethanesulfonic acid (HEPES), 2.5 mg/mL D-glucose, and […] gentamicin in a humidified incubator at 37° C./5% CO2. Cells were removed from flasks for passage or for transfer to 12-well assay plates by incubating them with 0.25% trypsin/ethylenediaminetetraacetic acid (EDTA).
The IC50 of metal-free RPS-085 was determined in a multi-concentration competitive binding assay against ^99mTc-MIP-1427 (Hillier et al., J Nucl Med. 2013; 54: 1369-76) for binding to PSMA on LNCaP cells, according to previously described methods (Kelly et al., Eur J Nucl Med Mol Imaging. 2018; 45: 1841-51). RPS-085 was added in to the wells in final concentrations ranging from 1 pM-10 μM. The assay was performed in triplicate, and the IC50 was expressed as mean±standard deviation.

[2] = Plasma stability; format: in vitro ADME, human; conditions: 37° C.
Procedure: The plasma stability of [^67Cu]Cu-RPS-085 was determined according to previously described methods (Alt, et al., Mol Pharmaceutics. 2014; 11: 2855-63). Briefly, frozen human plasma was purchased from Sigma Aldrich (USA), thawed at 37° C., and 200 μL aliquots were transferred to Eppendorf tubes. A 100 μL aliquot of [^67Cu]Cu-RPS-085 in 10% EtOH/saline was added to each tube, and the mixture was shaken at 300 rpm for 24 h at 37° C. on an Eppendorf ThermoMixer® C (VWR, USA). The experiment was performed in triplicate. The proteins were precipitated by addition of 600 μL acetonitrile. The samples were centrifuged at 13500 rpm for 3 min in an Eppendorf 5424-R Centrifuge. The supernatant was analyzed by analytical reverse phase (radio)HPLC as described above. After 24 h incubation in human plasma, [^67Cu]Cu-RPS-085 was 97.4±0.4% intact. The lone radiochemical impurity was an unidentified fragment of the parent compound.

[3] = Stability of the reformulated radioligand solution at 25° C.; format: physicochemical; conditions: after reformulation, radioHPLC
Procedure: The stability of the reformulated [^64Cu]Cu-RPS-085 solution was determined in triplicate at 25° C. Three 1 mL samples at a radioactivity concentration of approximately 10 MBq/mL and radiochemical purity >99% were transferred to Eppendorf tubes (VWR, USA). The samples were incubated for 24 h at 25° C. in an Eppendorf ThermoMixer® C (VWR, USA). Radiochemical purity was determined by analytical reverse phase (radio)HPLC and expressed as a fraction of the purity of the sample prior to incubation. After reformulation, [^64Cu]Cu-RPS-085 was stable at room temperature for more than 24 h.

[4] = tested on: LNCaP xenografts; test: Tissue biodistribution in mice bearing LNCaP xenografts; format: in vivo, male Balb/C nu/nu mice; conditions: for activity in kidneys / tumor uptake: i.v., ±SEM
Procedure: (§1) All animal studies were approved by the Institutional Animal Care and Use Committee of Weill Cornell Medicine and were undertaken in accordance with the guidelines set forth by the USPHS Policy on Humane Care and Use of Laboratory Animals. The mice were housed under standard conditions in approved facilities with 12 h light/dark cycles. Food and water was provided ad libitum throughout the course of the studies. Male BALB/c athymic nu/nu mice were purchased from the Jackson Laboratory (USA). Prior to inoculation, LNCaP cells were suspended at a density of 4×10^7 cells/mL in a 1:1 mixture of PBS (VWR, USA):Matrigel (BD Biosciences, USA). Each mouse was injected subcutaneously in the left flank with 0.25 mL of the cell suspension. The animals were monitored twice weekly until palpable tumors emerged.
When tumor size reached approximately 200 mm^3, mice (n=4/time point) were administered 3.8±0.1 MBq [^64Cu]Cu-RPS-085 or 0.8±0.005 MBq [^67Cu]Cu-RPS-085 by intravenous injection. The total mass dose received by each animal was approximately 50 ng (31 pmol) and approximately 28 ng (17 pmol) for the [^64Cu]Cu-RPS-085 and [^67Cu]Cu-RPS-085 studies, respectively. The mice were sacrificed at 4 h, 24 h, or 48 h p.i. ([^64Cu]Cu-RPS-085) or 4 h, 24 h, and 96 h ([^67Cu]Cu-RPS-085). A blood sample was collected, and the following tissues were collected and weighed wet using a digital balance: heart, lungs, liver, stomach, small intestine, large intestine, spleen, pancreas, kidneys, muscle, bone, and tumor. The tissues were counted on a Wizard2 Automatic Gamma Counter (Perkin Elmer, USA) against a 1% injected dose standard. The counts were corrected for decay and for activity injected, and tissue uptake was expressed as percent injected dose per gram (% ID/g). Standard error of the mean (SEM) was calculated for each data point. Statistical analyses were performed using an unpaired t test with GraphPad Prism software. A P value of less than 0.05 was considered significant. The concentration of [67Cu]Cu-RPS-085 found in blood, heart, lungs, liver, small intestine, large intestine, stomach, spleen, pancreas, kidneys, muscle, and bone at 4 h, 24 h, and 96 h, post injection (n=4 per time point) is shown in Table 1 below. Published values for [177Lu]Lu-RPS-063 are shown for comparison; all concentrations are expressed as percent injected dose per organ.

[5] = tested on: LNCaP xenograft tumors; test: microPET/CT imaging in LNCaP xenograft mouse model; format: in vivo, male BALB/c athymic nu/nu mice
Procedure: as §1
When tumor size was in the range 200-500 mm^3, mice (n=4) were administered 21.2±0.5 MBq [^64Cu]Cu-RPS-085 by intravenous injection. The total mass dose received by each animal was approximately 300 ng (185 pmol). The mice were imaged under isoflurane anesthesia at 1 h, 3 h, 6 h, 24 h, and 48 h post injection (p.i.) by microPET/CT (Inveon™; Siemens Medical Solutions, USA). Total acquisition time was 30 min. A CT scan was obtained immediately before the PET acquisition for both anatomical co-registration and attenuation correction. Images were reconstructed using the Inveon™ software provided by the vendor.

T1 sequence (Q04609 whole entry): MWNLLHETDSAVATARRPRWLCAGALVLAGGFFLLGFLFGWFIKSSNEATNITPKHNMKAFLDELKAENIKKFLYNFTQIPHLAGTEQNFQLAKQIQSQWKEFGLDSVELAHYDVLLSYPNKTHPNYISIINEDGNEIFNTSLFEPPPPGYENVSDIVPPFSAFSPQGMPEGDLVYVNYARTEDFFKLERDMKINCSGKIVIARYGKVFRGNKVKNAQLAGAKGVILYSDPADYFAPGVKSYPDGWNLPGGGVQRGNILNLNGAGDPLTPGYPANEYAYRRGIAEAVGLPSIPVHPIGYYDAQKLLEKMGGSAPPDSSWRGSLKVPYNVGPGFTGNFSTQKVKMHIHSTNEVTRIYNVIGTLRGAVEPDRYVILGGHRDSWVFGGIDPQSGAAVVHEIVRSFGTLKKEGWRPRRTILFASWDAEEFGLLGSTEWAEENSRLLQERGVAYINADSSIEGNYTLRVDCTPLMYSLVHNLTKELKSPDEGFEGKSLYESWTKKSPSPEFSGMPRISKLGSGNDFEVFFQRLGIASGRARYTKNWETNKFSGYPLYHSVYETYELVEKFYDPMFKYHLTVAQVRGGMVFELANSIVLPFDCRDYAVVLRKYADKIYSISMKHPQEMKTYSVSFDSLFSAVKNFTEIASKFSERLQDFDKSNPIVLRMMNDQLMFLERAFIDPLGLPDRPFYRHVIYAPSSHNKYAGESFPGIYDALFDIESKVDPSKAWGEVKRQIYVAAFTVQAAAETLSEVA

Structure (SMILES): CC12CNCCNCC(NC(=O)CCCC(=O)NCCCC[C@H](NC(=O)CCOCCOCCOCCn3cc(-c4cccc(NC(=O)NCCCC[C@H](NC(=O)N[C@@H](CCC(=O)O)C(=O)O)C(=O)O)c4)nn3)C(=O)N[C@@H](CCCCNC(=O)Cc3ccc(I)cc3)C(=O)O)(CNCCNC1)CNCCNC2 [RPS-085]
IC50 [1]: 29.1 ± 2.4 nM
affinity for PSMA relative to parent compound RPS-063 [1]: reduced by approximately one order of magnitude

time stable in human plasma [2]: more than 24 h
time stable in solution at room temperature [3]: more than 24 h
Structure (SMILES): CC12CNCCNCC(NC(=O)CCCC(=O)NCCCC[C@H](NC(=O)CCOCCOCCOCCn3cc(-c4cccc(NC(=O)NCCCC[C@H](NC(=O)N[C@@H](CCC(=O)O)C(=O)O)C(=O)O)c4)nn3)C(=O)N[C@@H](CCCCNC(=O)Cc3ccc(I)cc3)C(=O)O)(CNCCNC1)C[N@]1CC[N@](C2)[Cu]1 [[^64/67Cu]Cu-RPS-085]

Structure (SMILES): CC12CNCCNCC(NC(=O)CCCC(=O)NCCCC[C@H](NC(=O)CCOCCOCCOCCn3cc(-c4cccc(NC(=O)NCCCC[C@H](NC(=O)N[C@@H](CCC(=O)O)C(=O)O)C(=O)O)c4)nn3)C(=O)N[C@@H](CCCCNC(=O)Cc3ccc(I)cc3)C(=O)O)(CNCCNC1)CNCCNC2.[64Cu+2] [[^64Cu]Cu-RPS-085]
tumor-to-blood ratio ([4]; 4 h p.i.): 230±33
tumor-to-kidney ratio ([4]; 4 h p.i.): 0.9±0.2
activity in kidneys ([4]; 4 h p.i.): 13.7±2.3 % ID/g
tumor uptake ([4]; 4 h p.i.): 12.9±1.4 % ID/g
tumor-to-kidney ratio ([4]; 24 h p.i.): 3.4±0.7
activity in kidneys ([4]; 24 h p.i.): 2.4±0.4 % ID/g
tumor uptake ([4]; 24 h p.i.): 8.3±0.8 % ID/g
tumor-to-kidney ratio ([4]; 48 h p.i.): 6.1±0.8
activity in kidneys ([4]; 48 h p.i.): 1.6±0.1 % ID/g
tumor uptake ([4]; 48 h p.i.): 9.8±1.3 % ID/g
tumor-to-muscle ratio ([4]; all observed time points): greater than 500
activity in all other tissues including liver ([4]; all time points (4, 24, 48 h p.i.)): less than 0.5 % ID/g
tumor-to-blood ratio ([4]; subsequently (after 4 h p.i.)): exceeded 400
time stable in solution at room temperature [3]: more than 24 h
background tissue activity ([5]; microPET/CT): low
primary route of excretion ([5]; microPET/CT): Renal clearance
time by which only tumors could be visualized ([5]; microPET/CT): ≤ 24 h
time by which uptake in tumors exceeded kidneys ([5]; mouse, in vivo): ≤ 6 h p.i.
time of greatest activity in the tumor ([5]; mouse, in vivo): 3 h p.i.
activity in the tumor over time ([5]; over the 48 h imaging window, semi-quantitative, ROIs): virtually stable

Structure (SMILES): CC12CNCCNCC(NC(=O)CCCC(=O)NCCCC[C@H](NC(=O)CCOCCOCCOCCn3cc(-c4cccc(NC(=O)NCCCC[C@H](NC(=O)N[C@@H](CCC(=O)O)C(=O)O)C(=O)O)c4)nn3)C(=O)N[C@@H](CCCCNC(=O)Cc3ccc(I)cc3)C(=O)O)(CNCCNC1)CNCCNC2.[67Cu+2] [[^67Cu]Cu-RPS-085]
fraction intact after incubation in human plasma ([2]; 24 h): 97.4±0.4%
uncomplexed [67Cu]Cu2+ after incubation in human plasma ([2]; 24 h): No uncomplexed [^67Cu]Cu^2+ was observed
activity in kidneys ([4]; 4 h p.i.): 19.7±5.0 % ID/g
tumor uptake ([4]; 4 h p.i.): 12.5±2.7 % ID/g
Concentration in Blood ([4]; 4 h post injection): 0.02057 percent injected dose per organ
Concentration in Bone ([4]; 4 h post injection): 0.003853 percent injected dose per organ
Concentration in Heart ([4]; 4 h post injection): 0.01078 percent injected dose per organ
Concentration in Kidneys ([4]; 4 h post injection): 11.63 percent injected dose per organ
Concentration in Large Intestine ([4]; 4 h post injection): 0.29 percent injected dose per organ
Concentration in Liver ([4]; 4 h post injection): 0.2795 percent injected dose per organ
Concentration in Lungs ([4]; 4 h post injection): 0.0358 percent injected dose per organ
Concentration in Muscle ([4]; 4 h post injection): 0.002757 percent injected dose per organ
Concentration in Pancreas ([4]; 4 h post injection): 0.00535 percent injected dose per organ
Concentration in Small Intestine ([4]; 4 h post injection): 0.1493 percent injected dose per organ
Concentration in Spleen ([4]; 4 h post injection): 0.02732 percent injected dose per organ
Concentration in Stomach ([4]; 4 h post injection): 0.05547 percent injected dose per organ
activity in kidneys ([4]; 24 h p.i.): 4.5±0.8 % ID/g
tumor uptake ([4]; 24 h p.i.): 7.9±0.9 % ID/g
Concentration in Blood ([4]; 24 h post injection): 0.005816 percent injected dose per organ
Concentration in Bone ([4]; 24 h post injection): 0.001592 percent injected dose per organ
Concentration in Heart ([4]; 24 h post injection): 0.0068 percent injected dose per organ
Concentration in Kidneys ([4]; 24 h post injection): 1.857 percent injected dose per organ
Concentration in Large Intestine ([4]; 24 h post injection): 0.1354 percent injected dose per organ
Concentration in Liver ([4]; 24 h post injection): 0.1811 percent injected dose per organ
Concentration in Lungs ([4]; 24 h post injection): 0.01881 percent injected dose per organ
Concentration in Muscle ([4]; 24 h post injection): 0.001018 percent injected dose per organ
Concentration in Pancreas ([4]; 24 h post injection): 0.002143 percent injected dose per organ
Concentration in Small Intestine ([4]; 24 h post injection): 0.08652 percent injected dose per organ
Concentration in Spleen ([4]; 24 h post injection): 0.008292 percent injected dose per organ
Concentration in Stomach ([4]; 24 h post injection): 0.04228 percent injected dose per organ
tumor-to-kidney ratio ([4]; 96 h p.i.): 3.0±0.5
activity in kidneys ([4]; 96 h p.i.): 1.7±0.3 % ID/g
tumor uptake ([4]; 96 h p.i.): 5.1±3.3 % ID/g
Concentration in Blood ([4]; 96 h post injection): 0.003526 percent injected dose per organ
Concentration in Bone ([4]; 96 h post injection): 0.001075 percent injected dose per organ
Concentration in Heart ([4]; 96 h post injection): 0.008094 percent injected dose per organ
Concentration in Kidneys ([4]; 96 h post injection): 0.6854 percent injected dose per organ
Concentration in Large Intestine ([4]; 96 h post injection): 0.1379 percent injected dose per organ
Concentration in Liver ([4]; 96 h post injection): 0.1208 percent injected dose per organ
Concentration in Lungs ([4]; 96 h post injection): 0.01063 percent injected dose per organ
Concentration in Muscle ([4]; 96 h post injection): 0.000956 percent injected dose per organ
Concentration in Pancreas ([4]; 96 h post injection): 0.003044 percent injected dose per organ
Concentration in Small Intestine ([4]; 96 h post injection): 0.06091 percent injected dose per organ
Concentration in Spleen ([4]; 96 h post injection): 0.005006 percent injected dose per organ
Concentration in Stomach ([4]; 96 h post injection): 0.04483 percent injected dose per organ
accumulated activity (Ã) in kidneys ([4]; over 96 h p.i.): 538 (% ID/g)·h
accumulated activity (Ã) in tumors ([4]; over 96 h p.i.): 699 (% ID/g)·h
Ãtumor relative to [177Lu]PSMA-617 ([4]; over 96 h p.i.): 1.3 times
Ãtumor/Ãkidney ratio ([4]; over 96 h p.i.): 1.3
